Source: patent US11628186B2, “Method and composition for the reduction of viral replication, duration and spread of the COVID-19 and the flu” (priority 2017, dated 2023)
“And” between values parts separate entries of the source, which are not always exact repeats. Identical values can stand only once.

What was measured:
[1] = tested on: patients with chronic Hypoxemia; experiment: Various drugs with or without pre-inhaled pyruvate formulas (Table VII); format: in vivo, human; design: SaO2 Measurements taken after medication and compared to baseline / SaO2 Measurements taken after taking the medication and compared to baseline: unit not given here
Protocol: With the hundreds of patients tested in our various clinical trials, data was gathered as to the type of medications the patients used and the frequency of their use over a six-month period. The patients were asked to rate their medications form 1-10 with 1 being the most irritating with the most side effects and 10 being the best with no irritation and no side effects. In these clinical trials, various drugs were evaluated for irritation, mucus production, and efficacy in humans. The drugs were all evaluated using their current formulations and concentrations against the same formulations with the addition of sodium pyruvate, with the calcium, phosphate and magnesium formula given just prior to the use of their medications. They were instructed to 20 inhale this formula just prior to the use of their medications and to evaluate the effect of their medications on the 1-10 scale.
Patients on the various inhaled medications whether inhaled or taken orally or by IV infusion, were enlisted in the evaluation of the inhaled sodium pyruvate calcium, phosphate and magnesium formula. The patients were tested for their SaO2 levels and those that had SaO2 levels below 92% were asked to enlist in the study. […] After the SaO2 levels were determined prior to and one hour after taking their medications, the patients returned the following day, SaO2 measurements were taken one hour prior to taking their medications. The patients were then handed the hypotonic inhalation formula of sodium pyruvate with calcium, phosphate magnesium formula and instructed to inhale it one hour before taking their medications, SaO2 measurements were then taken one hour after taking their medications.

[2] = tested on: patients with lung diseases including COPD; experiment: Comparison of inhaled salts of pyruvate, 5 ml of 5 mM solution (Table II); details: for Increased in FEV-1%: 5 ml of 5 mM solution in saline; for Increased in FEV-1% / Irritation / Percentage Increase in SaO2 over baseline / Percentage increase of Nitric Oxide over baseline / Relief of congestion, coughing and lung tightness: inhaled; for Irritation / Percentage Increase in SaO2 over baseline / Percentage increase of Nitric Oxide over baseline / Relief of congestion, coughing and lung tightness / Overall Rating 1-10: 5 ml of 5 mM solution; for Overall Rating 1-10: 1 most negative, 10 best
[3] = tested on: patients with sinus & lung diseases including IPF and COPD; experiment: Salts of pyruvate as 20 mM nasal sprays (Table IX)
Source text: They never tested the individual salts for their ability to reduce inflammation or increase lung functions.

[4] = tested on: patients with lung diseases including COPD; experiment: Comparison of inhaled salts of pyruvate, 5 ml of 0.5 mM solution (Table I); details: for Increased in FEV-1% lung function: 5 ml of 0.5 mM solution in physiological saline; for Overall Rating 1-10: 1 most negative, 10 best
Protocol: All previous studies using pyruvate to treat Allergic Rhinitis, Asthmatic and COPD patients used only the sodium salt form of pyruvic acid in saline. The drug products that were tested in the six Phase I/II clinical trial were differing concentrations of sodium pyruvate dissolved in 0.9% sodium chloride solution (Saline). These drug products contained 0.5 mM, 1.5 mM, or 5.0 mM of sodium pyruvate in physiological saline. They were administered to normal volunteers and COPD and asthmatics by inhalation therapy. […] Various sodium pyruvate solutions were evaluated in the lungs for their ability to enhance FEV1 values and reduce coughing, and lung tightness.
The amount of the salts delivered in the 5 ml's of the 0.5 mM pyruvate solutions were compared to the amounts of the salts in 5 ml's of human blood. […] When ethyl pyruvate reacts with oxygen radical like hydrogen peroxide, it is converted to ethane and alcohol and Co2 and acetate. Ethane and alcohol are lung irritants.
This formula can also be made by adding 3% calcium phosphate or dicalcium phosphate to the standard 0.5 mM to 30 mM sodium pyruvate saline solution see Table I.

[5] = Drug in commercial formula taken in prescribed way
[6] = Drug in commercial formula with Pre-inhaled sodium pyruvate, calcium & phosphate & magnesium
[7] = Drug in commercial formula with pre-inhaled sodium pyruvate saline only
[8] = Drugs commercial formula given as instructed in the package
[9] = Drugs in commercial formula Pre-inhaled sodium pyruvate & calcium & phosphate & magnesium
[10] = Drugs in commercial formula with pre-inhaled sodium pyruvate in saline only
[11] = 20 mM (0.22%) nasal spray in 0.9% sodium chloride
[12] = 5 ml of 0.5 mM solution, inhaled

CC(C)(C)NCC(O)c1ccc(O)c(CO)c1 (stereo not drawn) [Albuterol]
SaO2 Measurements taken after medication and compared to baseline [1, 5]: 0
SaO2 measurements taken after taking medication and compared to baseline [1, 6]: +4
SaO2 Measurements taken after taking the medication and compared to baseline [1, 7]: +1
Lung functions (rating 1-10) [1, 8]: 8
Lung functions (rating 1-10) [1, 9]: 8
Lung functions (rating 1-10) [1, 10]: 8

CC(=O)C(=O)O.N [Ammonium, ammonium pyruvate]
Increased in FEV-1% [2]: 0%
Irritation [2]: Yes
Percentage Increase in SaO2 over baseline [2]: No
Percentage increase of Nitric Oxide over baseline [2]: 35.0%
Relief of congestion, coughing and lung tightness [2]: 1
Overall Rating 1-10 [2]: 1
Increased in FEV-1% [3, 11]: 0.0%
Irritation [3, 11]: Yes
Percentage Increase in SaO2 over baseline [3, 11]: No
Percentage increase of Nitric Oxide over baseline [3, 11]: 00.0%
Relief of congestion, coughing and lung tightness [3, 11]: 1
Overall Rating 1-10 ([3]; 20 mM (0.22%) nasal spray, 1 most negative, 10 best): 1
Increased in FEV-1% lung function ([4]; inhaled): 0%
Irritation [4, 12]: Yes
Percentage Increase in SaO2 over baseline [4, 12]: No
Percentage decrease or increase of Nitric Oxide over baseline [4, 12]: +5.0%
Relief of congestion, coughing and lung tightness [4, 12]: 1
Overall Rating 1-10 ([4]; 5 ml of 0.5 mM solution): 1
reduction of nitric oxide ([4]; 5 mls of a 0.5 mM inhalation solution): did not reduce nitric oxide
irritation in the nasal cavities compared with the lungs ([4]; evaluated in the nasal cavities): even more irritating
Irritation ([4]; inhaled into the lungs): irritating

C[C@H]1[C@H](NC(=O)/C(=N\OC(C)(C)C(=O)O)c2csc(N)n2)C(=O)N1S(=O)(=O)O [Aztreonam]
SaO2 Measurements taken after medication and compared to baseline [1, 5]: −1
SaO2 measurements taken after taking medication and compared to baseline [1, 6]: +4
SaO2 Measurements taken after taking the medication and compared to baseline [1, 7]: 0
Lung functions (rating 1-10) [1, 8]: 8
Lung functions (rating 1-10) [1, 9]: 7
Lung functions (rating 1-10) [1, 10]: 8

Oc1ccc2c(c1)[C@@]13CCCC[C@@]1(O)[C@@H](C2)N(CC1CCC1)CC3 [Butorphanol]
SaO2 Measurements taken after medication and compared to baseline [1, 5]: −2
SaO2 measurements taken after taking medication and compared to baseline [1, 6]: 0
SaO2 Measurements taken after taking the medication and compared to baseline [1, 7]: 0
Lung functions (rating 1-10) [1, 8]: 6
Lung functions (rating 1-10) [1, 9]: 9
Lung functions (rating 1-10) [1, 10]: 7

Clc1ccccc1C(c1ccccc1)(c1ccccc1)n1ccnc1 [Chlotrimizole]
SaO2 Measurements taken after medication and compared to baseline [1, 5]: −2
SaO2 measurements taken after taking medication and compared to baseline [1, 6]: +1
SaO2 Measurements taken after taking the medication and compared to baseline [1, 7]: +1
Lung functions (rating 1-10) [1, 8]: 4
Lung functions (rating 1-10) [1, 9]: 8
Lung functions (rating 1-10) [1, 10]: 6

O=C(O)c1cc(=O)c2c(OCC(O)COc3cccc4oc(C(=O)O)cc(=O)c34)cccc2o1 [Cromoglycate]
SaO2 Measurements taken after medication and compared to baseline [1, 5]: 0
SaO2 measurements taken after taking medication and compared to baseline [1, 6]: +5
SaO2 Measurements taken after taking the medication and compared to baseline [1, 7]: 0
Lung functions (rating 1-10) [1, 8]: 3
Lung functions (rating 1-10) [1, 9]: 7
Lung functions (rating 1-10) [1, 10]: 6

CNC[C@H](O)c1ccc(O)c(O)c1 [Epinephrine]
Lung functions (rating 1-10) ([1]; in vivo): 3 and 4 and 5
SaO2 Measurements taken after medication and compared to baseline ([1]; in vivo): +1
SaO2 Measurements taken after taking the medication and compared to baseline ([1]; in vivo): 0
SaO2 measurements taken after taking medication and compared to baseline ([1]; in vivo): +6

CC1(C)O[C@@H]2C[C@H]3[C@@H]4C[C@H](F)C5=CC(=O)C=C[C@]5(C)[C@H]4[C@@H](O)C[C@]3(C)[C@]2(C(=O)CO)O1 [Flunisolide]
SaO2 Measurements taken after medication and compared to baseline [1, 5]: −1
SaO2 measurements taken after taking medication and compared to baseline [1, 6]: +4
SaO2 Measurements taken after taking the medication and compared to baseline [1, 7]: +1
Lung functions (rating 1-10) [1, 8]: 6
Lung functions (rating 1-10) [1, 9]: 6
Lung functions (rating 1-10) [1, 10]: 6

C/C(=C\C(=O)OCCCCCCCCC(=O)O)C[C@@H]1OC[C@H](C[C@@H]2O[C@H]2[C@@H](C)[C@H](C)O)[C@@H](O)[C@H]1O [Mupirocin]
SaO2 Measurements taken after medication and compared to baseline [1, 5]: 0
SaO2 measurements taken after taking medication and compared to baseline [1, 6]: +4
SaO2 Measurements taken after taking the medication and compared to baseline [1, 7]: 0
Lung functions (rating 1-10) [1, 8]: 4
Lung functions (rating 1-10) [1, 9]: 8
Lung functions (rating 1-10) [1, 10]: 6

CC(=O)N[C@@H](CS)C(=O)O [N-acetylcysteine, reference compound]
Increased in FEV-1% [2]: 2%
Irritation [2]: yes
Percentage Increase in SaO2 over baseline [2]: 0%
Percentage increase of Nitric Oxide over baseline [2]: 1%
Relief of congestion, coughing and lung tightness [2]: 7
Overall Rating 1-10 [2]: 7
SaO2 Measurements taken after medication and compared to baseline [1, 5]: +1
SaO2 measurements taken after taking medication and compared to baseline [1, 6]: +4
SaO2 Measurements taken after taking the medication and compared to baseline [1, 7]: 0
Lung functions (rating 1-10) [1, 8]: 4
Lung functions (rating 1-10) [1, 9]: 8
Lung functions (rating 1-10) [1, 10]: 6
Increased in FEV-1% lung function ([4]; inhaled): 6%
Irritation [4, 12]: None
Percentage Increase in SaO2 over baseline [4, 12]: 0%
Percentage decrease or increase of Nitric Oxide over baseline [4, 12]: 0%
Relief of congestion, coughing and lung tightness [4, 12]: 8
Overall Rating 1-10 ([4]; 5 ml of 0.5 mM solution): 7

N=C(N)c1ccc(OCCCCCOc2ccc(C(=N)N)cc2)cc1 [Pentamidine isethionate]
SaO2 Measurements taken after medication and compared to baseline [1, 5]: −1
SaO2 measurements taken after taking medication and compared to baseline [1, 6]: +2
SaO2 Measurements taken after taking the medication and compared to baseline [1, 7]: +1
Lung functions (rating 1-10) [1, 8]: 4
Lung functions (rating 1-10) [1, 9]: 8
Lung functions (rating 1-10) [1, 10]: 5

NC(=O)c1ncn([C@@H]2O[C@H](CO)[C@@H](O)[C@H]2O)n1 [Ribavirin]
SaO2 Measurements taken after medication and compared to baseline [1, 5]: −3
SaO2 measurements taken after taking medication and compared to baseline [1, 6]: +2
SaO2 Measurements taken after taking the medication and compared to baseline [1, 7]: 0
Lung functions (rating 1-10) [1, 8]: 5
Lung functions (rating 1-10) [1, 9]: 7
Lung functions (rating 1-10) [1, 10]: 6

NC[C@H]1O[C@H](O[C@H]2[C@H](O)[C@@H](O[C@H]3O[C@H](CO)[C@@H](O)[C@H](N)[C@H]3O)[C@H](N)C[C@@H]2N)[C@H](N)C[C@@H]1O [Tobramycin]
SaO2 Measurements taken after medication and compared to baseline [1, 5]: −2
SaO2 measurements taken after taking medication and compared to baseline [1, 6]: +3
SaO2 Measurements taken after taking the medication and compared to baseline [1, 7]: 0
Lung functions (rating 1-10) [1, 8]: 5
Lung functions (rating 1-10) [1, 9]: 6
Lung functions (rating 1-10) [1, 10]: 5

CN[C@H](CC(C)C)C(=O)N[C@H]1C(=O)N[C@@H](CC(N)=O)C(=O)N[C@H]2C(=O)N[C@H]3C(=O)N[C@H](C(=O)N[C@H](C(=O)O)c4cc(O)cc(O)c4-c4cc3ccc4O)[C@H](O)c3ccc(c(Cl)c3)Oc3cc2cc(c3O[C@@H]2O[C@H](CO)[C@@H](O)[C@H](O)[C@H]2O[C@H]2C[C@](C)(N)[C@H](O)[C@H](C)O2)Oc2ccc(cc2Cl)[C@H]1O [Vancomycin]
SaO2 Measurements taken after medication and compared to baseline [1, 5]: −1
SaO2 measurements taken after taking medication and compared to baseline [1, 6]: +1
SaO2 Measurements taken after taking the medication and compared to baseline [1, 7]: 0
Lung functions (rating 1-10) [1, 8]: 6
Lung functions (rating 1-10) [1, 9]: 8
Lung functions (rating 1-10) [1, 10]: 5

CC(=O)N[C@H]1[C@H]([C@H](O)[C@H](O)CO)OC(C(=O)O)=C[C@@H]1N=C(N)N [Zanamivir]
SaO2 Measurements taken after medication and compared to baseline [1, 5]: −2
SaO2 measurements taken after taking medication and compared to baseline [1, 6]: +5
SaO2 Measurements taken after taking the medication and compared to baseline [1, 7]: 0
Lung functions (rating 1-10) [1, 8]: 4
Lung functions (rating 1-10) [1, 9]: 7
Lung functions (rating 1-10) [1, 10]: 5

CCOC(=O)C(C)=O [ethyl pyruvate, reference compound]
FEV1 ([4]; 5 mls of a 0.5 mM pyruvate inhalation solution in COPD and asthmatic patients): did not increase FEV-1
Irritation ([4]; in vivo): irritating

Insulin
SaO2 Measurements taken after medication and compared to baseline [1, 5]: −2
SaO2 measurements taken after taking medication and compared to baseline [1, 6]: +4
SaO2 Measurements taken after taking the medication and compared to baseline [1, 7]: +1
Lung functions (rating 1-10) [1, 8]: 5
Lung functions (rating 1-10) [1, 9]: 7
Lung functions (rating 1-10) [1, 10]: 6

Levorphanol Tartrate
SaO2 Measurements taken after medication and compared to baseline [1, 5]: −6
SaO2 measurements taken after taking medication and compared to baseline [1, 6]: +6
SaO2 Measurements taken after taking the medication and compared to baseline [1, 7]: +1
Lung functions (rating 1-10) [1, 8]: 2
Lung functions (rating 1-10) [1, 9]: 8
Lung functions (rating 1-10) [1, 10]: 6
